Source: patent publication US20160052898A1, “NOVEL COMPOUNDS” (BAYER PHARMA AKTIENGESELLSCHAFT, priority 2013, published 2016)
Structures can show the parent of a compound that is named as a salt. Where two headings read alike, the source gives them in different places.

Tests used:
Type in all cases: cell-based
[1] = system: HCT116 FOP control reporter cell line; test: HCT116 FOP control vector reporter assay (non-functional TCF elements); settings: HCT116 FOP control reporter cells, luciferase expression, 36 hours incubation, 50 μM to 15 nM, read-out: HCT116 FOPFlash IC50
Method in brief: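 Stable HCT116 line carrying the non-functional FOP luciferase construct, 10000 cells/well plated 24 hrs before. Compounds 50 μM to 15 nM (3.16-fold steps) in CAFTY buffer pH 7.4 with 2 mM Ca2+, 36 hours at 37° C; luciferase luminescence read.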

[2] = system: HEK293 FOP control reporter cell line; test: HEK293 FOP control vector reporter assay; settings: Homo sapiens; HEK293 FOP control reporter cells, EC50 concentration of recombinant Wnt-3a, 16 hours incubation; read-out: HEK FOP IC50
Method: (§1) In order to determine the inhibitory activity of compounds for the WT Wnt signaling pathway, the Super TopFlash vector respectively FOP vector were cotransfected with pcDNA3 into HEK293 and stable transfected HEK293 cells were isolated by antibiotic selection. […] The recombinant human Wnt-3a was thereby used between 2500 and 5 ng/ml in two-fold dilution steps. […] Measurement of luciferase expression was done as described for the constitutive active Wnt assay.
In a parallel approach, HEK293 cells were cotransfected with the FOP control vector and pcDNA3. The FOP vector is identical to the TOP construct, but it contains instead of functional TCF elements a randomized, non-functional sequence. For this transfection a stable transfected cell line was generated as well, based on selection with Geneticin (1 mg/ml).
(§2) In preparation of the assay, the two cell lines were plated 24 hours before beginning the test at 10000 cells per well in a 384 micro titre plate (MTP) in […] growth medium. […] The recombinant human Wnt-3a was thereby applied between 2500 and 5 ng/ml in two-fold dilution steps. Selective inhibitory activity for small molecules on the wildtype Wnt pathway was determined after parallel incubation of both (TOP and FOP) HEK293 reporter cell lines with a compound dilution series from 50 μM to 15 nM in steps of 3.16-fold dilutions in CAFTY buffer (130 mM NaCl, 5 mM KCl, 20 mM HEPES, 1 mM MgCl2, 5 mM NaHCO3, pH 7.4) containing 2 mM Ca^2+ and 0.01% BSA.
(§3) The compounds were thereby serially prediluted in 100% DMSO and thereafter 50 fold into the CAFTY compound dilution buffer (described above).

[3] = system: wildtype Wnt pathway; test: HEK293 Super TopFlash cellular reporter assay, Wnt-3a stimulated (wildtype Wnt pathway); settings: Homo sapiens; HEK293 TOP reporter cells, EC50 concentration of recombinant Wnt-3a, 16 hours incubation; read-out: HEK TOP OncoFlash IC50
Method: as §1
In order to discover and characterize small molecules which inhibit the wildtype Wnt pathway, a cellular reporter assay was employed. The corresponding assay cell was generated by transfection of the mammalian cell line HEK293 (ATCC, #CRL-1573) with the Super TopFlash vector (Morin, Science 275, 1997, 1787-1790; Molenaar et al., Cell 86 (3), 1996, 391-399). The HEK293 cell line is cultivated at 37° C. and 5% CO2 in DMEM (Life Technologies, #41965-039), supplemented with 2 mM glutamine, 20 mM HEPES, 1.4 mM pyruvate, 0.15% Na-bicarbonate and 10% foetal bovine serum (GIBCO, #10270). Stable transfectants were generated by selection with 300 μg/ml Hygromycin.
as §2, §3

[4] = system: constitutive active colorectal cancer cell (CRC) Wnt pathway; test: HCT116 Super TopFlash cellular reporter assay (constitutive active Wnt pathway); settings: HCT116 TOP reporter cells, luciferase expression, 36 hours incubation, 50 μM to 15 nM
Method in brief: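 HCT116 cells (β-catenin ΔS45) stably carrying Super TopFlash, with a parallel FOP-control line, were plated 24 h ahead. They were exposed 36 h at 37 °C, 5% CO2 to compound from a 50 μM–15 nM, 3.16-fold pre-dilution series in CAFTY buffer (pH 7.4, 2 mM Ca2+, 0.01% BSA). Wnt signalling was read as luciferase luminescence.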

Compound	IC50 ([1]; Homo sapiens, HCT-116, 36 h) [µM]	IC50 [3] [µM]	IC50 ([4]; Homo sapiens, HCT-116, 36 h) [µM]	IC50 [1] [µM]	IC50 [4] [µM]	IC50 [2] [µM]
O=C(CN1CCOCC1)Nc1cc(NC(=O)c2ccc(-c3ccc(F)cc3)cc2)ccc1OC(F)(F)F [Example 75, 4′-fluoro-N-{3-[(morpholin-4-ylacetyl)amino]-4-(trifluoromethoxy)phenyl}biphenyl-4-carboxamide]	≥ 50	0.85	0.145			40
CC(C(=O)Nc1cc(C(=O)Nc2ccc(-c3ccccc3)cc2)ccc1C(F)(F)F)N1CCOCC1 (stereo not shown) [Example 14, N-(biphenyl-4-yl)-3-{[2-(morpholin-4-yl)propanoyl]amino}-4-(trifluoromethyl)benzamide]	≥ 50	0.24	0.027			7
C[C@@H](C(=O)Nc1cc(NC(=O)c2ccc(-c3ccccc3)cc2)ccc1OC(F)(F)F)N1CCOCC1 [Example 62, N-[3-{[(2S)-2-(morpholin-4-yl)propanoyl]amino}-4-(trifluoromethoxy)phenyl]biphenyl-4-carboxamide]	≥ 50	0.055	0.061			8
COc1ccc(NC(=O)c2ccc(-c3ccccc3)cc2)cc1NC(=O)CN1C[C@@H]2C[C@H]1CO2 [Example 33, N-(4-methoxy-3-{[(1S,4S)-2-oxa-5-azabicyclo[2.2.1]hept-5-ylacetyl]amino}phenyl)biphenyl-4-carboxamide]	≥ 50	0.4	0.435			9
COc1ccc(C(=O)Nc2ccc(-c3ccccc3)cc2)cc1NC(=O)CN1C[C@@H]2C[C@H]1CO2 [Example 7, N-(biphenyl-4-yl)-4-methoxy-3-{[(1S,4S)-2-oxa-5-azabicyclo[2.2.1]hept-5-ylacetyl]amino}benzamide]	≥ 50	0.82	0.963			10
COc1ccc(NC(=O)c2ccc(-c3ccccc3)cc2)cc1NC(=O)CN1CC[C@@H](O)C1 [Example 43, N-[3-({[(3R)-3-hydroxypyrrolidin-1-yl]acetyl}amino)-4-methoxyphenyl]biphenyl-4-carboxamide]	≥ 50	1.2	2.65			≥ 50
COc1cccc(-c2ccc(C(=O)Nc3ccc(OC)c(NC(=O)CN4CCOCC4)c3)cc2)c1 [Example 80, 3′-methoxy-N-{4-methoxy-3-[(morpholin-4-ylacetyl)amino]phenyl}biphenyl-4-carboxamide]	≥ 50	3.8	3.3			≥ 50
Nc1ccc(-c2ccc(C(=O)Nc3ccc(OC(F)(F)F)c(NC(=O)CN4CCOCC4)c3)cc2)cc1 [Example 76, 4′-amino-N-{3-[(morpholin-4-ylacetyl)amino]-4-(trifluoromethoxy)phenyl}biphenyl-4-carboxamide]	≥ 50	0.039	0.487			11
COCCCOCc1ccc(C(=O)Nc2ccc(-c3ccccc3)cc2)cc1NC(=O)CN1CCOCC1 [Example 87, N-(biphenyl-4-yl)-4-[(3-methoxypropoxy)methyl]-3-[(morpholin-4-ylacetyl)amino]benzamide]	34		0.196			
COc1ccc(NC(=O)c2ccc(-c3cccc(C(F)(F)F)c3)cc2)cc1NC(=O)CN1CCOCC1 [Example 78, N-{4-methoxy-3-[(morpholin-4-ylacetyl)amino]phenyl}-3′-(trifluoromethyl)biphenyl-4-carboxamide]	≥ 50		2.9			

Continued, in another order:

IC50 ([1]; Homo sapiens, HCT-116, 36 h) [µM]	IC50 [3] [µM]	IC50 ([4]; Homo sapiens, HCT-116, 36 h) [µM]	IC50 [1] [µM]	IC50 [4] [µM]	Compound	IC50 [2] [µM]
≥ 50	0.011	0.00521			COc1ccc(C(=O)Nc2ccc(-c3ccccc3)cc2)cc1NC(=O)C1(N2CCOCC2)CC1 [Example 101, N-(biphenyl-4-yl)-4-methoxy-3-({[1-(morpholin-4-yl)cyclopropyl]carbonyl}amino)benzamide]	17
≥ 50	0.11	0.0445			O=C(CN1CCOCC1)Nc1cc(C(=O)Nc2ccc(-c3ccccc3)cc2)ccc1OCC(F)(F)F [Example 127, N-(biphenyl-4-yl)-3-[(morpholin-4-ylacetyl)amino]-4-(2,2,2-trifluoroethoxy)benzamide]	31
≥ 50		0.385			COC1CN(CC(=O)Nc2cc(C(=O)Nc3ccc(-c4ccccc4)cc3)ccc2OC2CC2)C1 [Example 186, N-(biphenyl-4-yl)-4-(cyclopropyloxy)-3-{[(3-methoxyazetidin-1-yl)acetyl]amino}benzamide]	
≥ 50		0.222			CC(=O)NCCCOc1ccc(C(=O)Nc2ccc(-c3ccccc3)cc2)cc1NC(=O)CN1CCOCC1 [Example 126, 4-(3-acetamidopropoxy)-N-(biphenyl-4-yl)-3-[(morpholin-4-ylacetyl)amino]benzamide]	
≥ 50		3.9			NC(=O)COc1ccc(NC(=O)c2ccc(-c3ccccc3)cc2)cc1NC(=O)CN1CCOCC1 [Example 211, N-{4-(2-amino-2-oxoethoxy)-3-[(morpholin-4-ylacetyl)amino]phenyl} biphenyl-4-carboxamide]	
12.6		0.127			COc1ccc(NC(=O)c2ccc(-c3ccccc3)cc2)cc1NC(=O)C1(N2CCN(C)CC2)CC1 [Example 163, N-[4-methoxy-3-({[1-(4-methylpiperazin-1-yl)cyclopropyl]carbonyl}amino)phenyl]biphenyl-4-carboxamide hydrochloride (1:1)]	
30		0.0795			COCCCOCc1ccc(C(=O)Nc2ccc(-c3ccccc3)cc2)cc1NC(=O)C(C)N1CCOCC1 (stereo not shown) [Example 160, N-(biphenyl-4-yl)-4-[(3-methoxypropoxy)methyl]-3-([2-(morpholin-4-yl)propanoyl]amino} benzamide]	
≥ 50		4.9			COc1ccc(NC(=O)c2ccc(-c3ccccc3)cc2)cc1NC(=O)CN1CCO[C@H](CO)C1 [Example 214, N-[3-({[(2S)-2-(hydroxymethyl)morpholin-4-yl]acetyl}amino)-4-methoxyphenyl]biphenyl-4-carboxamide]	
			≥ 50	0.301	CC(C(=O)Nc1cc(NC(=O)c2ccc(-c3ccccc3)cc2)ccc1C(F)(F)F)N1CCOCC1 (single isomer, unassigned) [Example 180, N-(3-{[(2S*)-2-(morpholin-4-yl)propanoyl]amino}-4-(trifluoromethyl)phenyl] biphenyl-4-carboxamide]	
8.9		0.105			CN1CCN(CC(=O)Nc2cc(C(=O)Nc3ccc(-c4ccccc4)cc3)ccc2CS(C)(=O)=O)CC1 [Example 125, N-(biphenyl-4-yl)-3-{[(4-methylpiperazin-1-yl)acetyl]amino}-4-[(methylsulfonyl)methyl]benzamide]	
≥ 50		1.5			COc1ccc(NC(=O)c2ccc(-c3ccc(N(C)C)cc3)cc2)cc1NC(=O)CN1CCOCC1 [Example 198, 4′-(dimethylamino)-N-{4-methoxy-3-[(morpholin-4-ylacetyl)amino]phenyl} biphenyl-4-carboxamide]	
≥ 50		0.398			COc1c(F)cc(C(=O)Nc2ccc(-c3ccccc3)cc2)cc1NC(=O)CN1CCOCC1 [Example 134, N-(biphenyl-4-yl)-3-fluoro-4-methoxy-5-[(morpholin-4-ylacetyl)amino]benzamide]	
